Test results taken from patent US9266820B2, “Nitric oxide donor compounds” (NICOX S.A., priority 2007, dated 2016).
Where a name gives a salt, the structure may show the parent alone. Read-outs that look alike come from different tables or passages of the source.

System: isolated rabbit thoracic aorta preparations
Experiment: vasorelaxant activity in isolated rabbit thoracic aorta preparations precontracted with noradrenaline
Type: cell-based
Settings: read-out: IC50 (μM) ± sem
Procedure: The ability of the compounds of the present invention to release nitric oxide was assessed testing their vasorelaxant activity in isolated rabbit thoracic aorta preparations (Wanstall J. C. et al., Br. J. Pharmacol., 134:463-472, 2001).
Male New Zealand rabbits were anaesthetized with thiopental-Na (50 mg/kg, iv), sacrificed by exsanguinations and then the thorax was opened and the aorta dissected. Single ring preparations (4 mm in length) of thoracic aorta were set up in physiological salt solution (PSS) at 37° C. in small organ chambers (5 ml). The composition of PSS was (mM): NaCl 130, NaHCO3 14.9, KH2PO4 1.2, MgSO4 1.2, HEPES 10, CaCl2, ascorbic acid […] and glucose 1.1 (95%)2/5% CO2; pH 7.4). Each ring was mounted under 2 g passive tension in 5 ml organ bath. Isometric tension was recorded with a Grass transducer (Grass FT03) attached to a BIOPAC MP150 System. Preparations were allowed to equilibrate for 1 h, then contracted submaximally with noradrenaline (NA, 1 μM) and, when the contraction was stable, acetylcholine (ACh, 10 μM) was added. A relaxant response to ACh indicated the presence of a functional endothelium. When a stable precontraction was reached, a cumulative concentration-response curve to either of the vasorelaxant agents was obtained in the presence of a functional endothelium. Time intervals between different concentrations were based on the time needed to reach a full response.
Moreover, the nitric oxide-dependent vascular relaxation elicited by the tested compounds was examined preincubating the aortic rings with the soluble guanylyl cyclase inhibitor ODQ (1H-(1,2,4)-oxadiazol(4,3-a)quinoxalin-1-one) at 10 μM for 20 min. Responses to vasorelaxing agents were measured from the plateau of NA contraction. The IC50 (concentration giving 50% reversal of NA contraction) was interpolated from the plots of relaxant-response vs log molar concentration of tested compound.
During the experimental period, the plateau obtained with NA was stable without significant spontaneous loss of contraction in the aortic rings.

[1] = Oryctolagus cuniculus, concentration giving 50% reversal of NA (1 μM) contraction, aortic rings with functional endothelium
[2] = concentration giving 50% reversal of NA (1 μM) contraction, aortic rings with functional endothelium

Row | SMILES | IC50 [1] | further results
1 | CC(C)(C)OC(=O)N1CCCC1C(=O)OCc1ccc(CO[N+](=O)[O-])cc1 (stereo not drawn) [Compound 7, 1-tert-Butyl 2-(4-(nitrooxymethyl)benzyl)pyrrolidine-1,2-dicarboxylate] | 2.4 ± 0.5 µM | –
2 | CC(C)(C)OC(=O)N1CCCC1C(=O)Oc1cccc(CO[N+](=O)[O-])c1 (stereo not drawn) [Compound 8] | – | IC50 [2]: 2.6 ± 0.6 µM
3 | CC(C)(C)OC(=O)N1CCCC1C(=O)OCCOCCO[N+](=O)[O-] (stereo not drawn) [Compound 9] | – | IC50 [2]: 4.5 ± 1.4 µM
4 | CC(C)(C)OC(=O)NCC(=O)NCCCCO[N+](=O)[O-] [Compound 12, tert-butyl 2-(4-(nitrooxy)butylamino)-2-oxoethylcarbamate] | 10.2 ± 4.2 µM | –
5 | CC(C)(C)OC(=O)NC(CCc1ccccc1)C(=O)OCc1ccc(CO[N+](=O)[O-])cc1 (stereo not drawn) [Compound 13, 4-[(Nitrooxy)methyl]benzyl 2-(tert-butoxycarbonylamino)-4-phenylbutanoate] | 10.2 ± 0.5 µM | –
6 | CC(C)(C)OC(=O)N[C@@H](Cc1ccccc1)C(=O)OCCCCO[N+](=O)[O-] [Compound 15, (S)-4-(nitrooxy)butyl 2-(tert-butoxycarbonylamino)-3-phenylpropanoate] | 12.6 ± 6.4 µM | –
7 | CC(C)(C)OC(=O)NC(CCc1ccccc1)C(=O)Oc1cccc(CO[N+](=O)[O-])c1 (stereo not drawn) [Compound 86, 3-[(Nitrooxy)methyl]phenyl 2-(tert-butoxycarbonylamino)-4-phenylbutanoate] | 5.2 ± 0.9 µM | –
8 | CC(C)(C)OC(=O)NCC(=O)OCc1ccc(CO[N+](=O)[O-])cc1 [Compound 87, 4-[(nitrooxy)methyl]benzyl 2-(tert-butoxycarbonylamino)acetate] | 2.1 ± 0.4 µM | –
9 | CC(C)(C)OC(=O)N[C@@H](Cc1ccccc1)C(=O)OCCCC[C@H](CO[N+](=O)[O-])O[N+](=O)[O-] [Compound 123] | – | IC50 (Oryctolagus cuniculus): 0.64 ± 0.14 µM
10 | NC(COC(=O)OCCCCO[N+](=O)[O-])C(=O)O (stereo not drawn) [Compound 407, 2-amino-3-((4-(nitrooxy)butoxy)carbonyloxy)propanoic acid hydrochloride] | – | IC50 (Oryctolagus cuniculus): 16 ± 6.4 µM
11 | CC(C)(C)OC(=O)NCCOC(=O)CCCO[N+](=O)[O-] [Compound 508, 2-(tert-butoxycarbonylamino)ethyl 4-(nitrooxy)butanoate] | 4.4 ± 0.7 µM | –
12 | CC(C)(C)OC(=O)N[C@H](COC(=O)CCCO[N+](=O)[O-])Cc1ccccc1 [Compound 511, (S)-2-(tert-butoxycarbonylamino)-3-phenylpropyl 4-(nitrooxy)butanoate] | 9.5 ± 3.6 µM | –
13 | CC(C)(C)OC(=O)N1CCCC1C(=O)OCCCCO[N+](=O)[O-] (stereo not drawn) [Example 14, 1-tert-butyl 2-(4-(nitrooxy)butyl)pyrrolidine-1,2-dicarboxylate] | 1.9 ± 0.4 µM | –
14 | CC(C)(C)OC(=O)N1CCCC1C(=O)OCCCO[N+](=O)[O-] (stereo not drawn) [Example 15, 1-tert-butyl 2-(3-(nitrooxy)propyl)pyrrolidine-1,2-dicarboxylate] | 1.2 ± 0.33 µM | –
15 | CC(C)(C)OC(=O)NC(CCc1ccccc1)C(=O)OCCOCCO[N+](=O)[O-] (stereo not drawn) [Example 21, 2-(2-(Nitrooxy)ethoxy)ethyl 2-(tert-butoxycarbonylamino)-4-phenylbutanoate] | 8 ± 1.8 µM | –
